Entries after “also recorded” stand apart in the source; their conditions may differ. Structures can show the parent of a compound that is named as a salt. Where two headings read alike, the source gives them in different places.
Legend:
THP-1 = assay: Host cell toxicity: THP-1 host nuclei counts in the image-based assay; settings: for GI50: read-out: GI50 THP-1; for Selectivity: ratio between parasite GI50 and THP-1 GI50
Protocol: (§1) Sterile, black, 96-well, clear bottom plates (Greiner Bio-One) were seeded with exponentially growing THP-1 (5×10^5cells/ml). THP-1 were treated with 0.1 µM phorbol myristate acetate (PMA, Sigma) at 37°C for 48 h to achieve differentiation into adherent, non-dividing macrophages. Maturation of THP-1 cells towards monocyte-macrophage like cells is essential to avoid parasitized cells being overgrown by replicating cells. After activation by PMA, cells were washed and incubated with complete RPMI medium containing stationary phase L. donovani promastigotes at a macrophage/promastigote ratio of 1/15. After 4 h incubation at 37°C, non-internalized promastigotes were removed by 2–3 successive washes with RPMI containing 5% FBS and 5% horse serum. Test compounds (10 µM), positive control (2 µM amphotericin B) or negative control (1% DMSO) were then added to the cultures using a Biomek FXp liquid handler (Beckman Coulter). Cultures were incubated at 37°C for 72 h. Cells were then washed with phosphate-buffered saline (PBS), fixed for 30 minutes with 4% formaldehyde, rinsed again with PBS, stained for 2 h with 4′,6′-diamidino-2-phenylindole (DAPI 300 nM) and finally washed with PBS. […] Images were acquired with an INCell Analyzer 1000 automated epi-fluorescent microscope (G.E. Healthcare). The excitation and emission filters used to detect DAPI were 350/50 nm and 460/40 nm respectively. Eight image fields were acquired per well with a 20X objective. The proprietary INCell Developer Toolbox 1.7 software was used for image analysis. Segmentation parameters were set to identify host nuclei with a minimum area of 250 µm^2 and parasite kinetoplast with an average area of 1 µm^2. The intensity of parasite nucleus was too low to be detected with a 20X objective. A border, representing the boundary of the cell, was drawn around the nucleus (total area between 700 and 2000 µm^2). Only parasites found within this area were included in the calculation to eliminate extracellular parasites. False positive parasite detection in the nucleus was also excluded from the calculation. Host cell nuclei and parasite kinetoplasts were counted and the ratio of parasites DNA to host nuclei was selected as the measurement output. Percentage inhibition of parasite growth was calculated as [1-(P/hcx-P/hc^+)/(P/hc^−-P/hc^+)]*100 where P/hcx, P/hc^+ and P/hc^− are parasite per host cell ratio for every well, positive control (amphotericin B) and negative control (DMSO) respectively. Calculation of Z' factor and GI50 curve fitting were carried out as described above.

[1] = system: L. donovani intracellular amastigotes; assay: Intracellular amastigote high-throughput image-based assay in infected THP-1 macrophages; format: cell-based, Leishmania donovani; settings: for GI50: read-out: GI50 Intracellular amastigote
Protocol: as §1

[2] = system: L. donovani promastigotes; assay: Promastigote high-throughput ATP-bioluminescence assay; format: cell-based, Leishmania donovani; settings: for GI50: read-out: GI50 Promastigote; for Activity against promastigotes (in words): dose response, up to 50 µM
Protocol: L. donovani promastigotes from an exponentially growing culture were diluted to 10^6/ml in RPMI containing 10% FBS and 10% BHT. The diluted culture (99 µl/well) was dispensed in sterile 96-well flat white opaque assay plates (Greiner Bio-One) using a WellMate multichannel dispenser (Matrix). 1 µl of 1 mM test compound dissolved in DMSO was added to the plates for a final concentration of 10 µM compound and 1% DMSO. Amphotericin B was added as a positive control (final concentration 2 µM, 1% DMSO) and as a negative control, 1 µl DMSO was added (1% final concentration). Compounds and controls were added to the assay plate with the robotic dispenser Biomek FXp liquid handler (Beckman Coulter). Promastigotes were incubated with the compounds for 72 h at 27°C. The parasites were then lysed by adding 50 µl of CellTiter-Glo (Promega) and placed on an orbital shaker for 5 min at room temperature. After lysis, the resulting ATP-bioluminescence was measured using the Analyst HT plate reader (Molecular Devices). Percentage inhibition of parasite growth was calculated for each well as [1-(RLUx-RLU^+)/(RLU^--RLU^+)]*100 where RLUx, RLU^+ and RLU^- are respectively the Relative Light Units for each well, positive (amphotericin B) and negative (DMSO) controls. A screening window coefficient, denoted Z' factor, was used to evaluate the performance of the assay. The Z' factor, calculated as 1-(3σc++3σc−)/(µc+−µc−) where σc+, σc−, µc+ and µc− are respectively the standard deviation and mean values of positive and negative controls, is reflective of the assay signal dynamic range and the data variation associated with signal measurement. […] GI50 curve fitting was carried out using GraphPad Prism 4 Software (GraphPad Software Inc., San Diego, CA).

[3] = system: L. donovani axenic amastigotes; assay: Dose response study against axenic amastigotes (CellTiter-Glo); format: cell-based, Leishmania donovani; settings: for GI50: read-out: GI50 Axenic amastigote; for Activity against axenic amastigotes (in words): dose response, up to 50 µM
Protocol: L. donovani axenic amastigotes (5×10^5 cells/ml in axenic amastigote media) were dispensed in sterile 96-well flat white opaque assay plates (Greiner Bio-One) using a WellMate multichannel dispenser (Matrix). […] 1% DMSO and amphotericin B (2 µM, 1% DMSO final concentration) were added as negative and positive controls respectively. Axenic amastigotes were incubated with the compounds for 72 h at 37°C with 5% CO2. Parasite viability was then measured using CellTiter-Glo as described above.

[4] = Leishmania donovani, THP-1, 72 h, L. donovani in THP-1, 72 h, parasites per host cell
[5] = ratio between promastigote GI50 and intracellular amastigote GI50, >2 more active against intracellular amastigote, <0.4 more active against promastigotes
[6] = Leishmania donovani, 72 h at 27°C, CellTiter-Glo
[7] = Leishmania donovani, 72 h at 37°C, CellTiter-Glo
[8] = 10 µM, duplicates, hit = 60% parasite growth inhibition and not more than 20% reduction in THP-1 numbers
[9] = L. donovani in THP-1, 72 h, parasites per host cell
[10] = PMA-differentiated infected THP-1, 72 h, host nuclei count

Row | Structure (SMILES) | GI50 (THP-1; Homo sapiens, THP-1, 72 h) [µM] | Selectivity (THP-1) | GI50 [1, 4] [µM] | Specificity [1, 5] | GI50 [2, 6] [µM] | GI50 [3, 7] [µM] | GI50 [1, 9] [µM] | also measured
1 | Clc1cc(Cl)c(OCC#CI)cc1Cl [Haloprogin] | 20 | 19.04 | 6 | 0.17 | 1.05 | 0.56 |  | 
2 | C=CCN1CC[C@]23c4c5ccc(O)c4O[C@H]2C(=O)CC[C@@]3(O)[C@H]1C5 [naloxone] |  |  |  |  |  |  |  | Toxicity to the host macrophage (in words) (THP-1; dose response, up to 50 µM): not toxic; Primary screen against intracellular amastigotes, hit selection [1, 8]: not selected as a hit; Activity against intracellular amastigotes (in words) ([1]; dose response, up to 50 µM): inactive; also recorded: did not show any activity; Primary screen against promastigotes, hit selection ([2]; 10 µM, hit = 60% parasite growth inhibition): not selected as a hit; Activity against promastigotes (in words) [2]: inactive; Activity against axenic amastigotes (in words) [3]: inactive
3 | CCOc1ccccc1OCCN[C@H](C)Cc1ccc(OC)c(S(N)(=O)=O)c1 [Tamsulosin] | 28 | 4.43 | 6.3 | 3.17 | 20 | > 50 |  | 
4 | COc1ccccc1OCCNCC(O)COc1cccc2[nH]c3ccccc3c12 (stereo not shown) [Carvedilol] | 37.5 | 6.07 | 6.16 | 2.01 | 12.4 | > 16.5 |  | 
5 | Oc1c(Cl)cc(Cl)c(Cl)c1Cc1c(O)c(Cl)cc(Cl)c1Cl [Hexachlorophene] | 16.5 |  |  | 3.49 |  |  |  | GI50 ([1]; Leishmania donovani, THP-1, 72 h): 4.54 µM; GI50 ([2]; Leishmania donovani, 72 h): 15.9 µM; GI50 ([3]; Leishmania donovani, 72 h): 14.8 µM
6 | C=CCN1CC[C@]23c4c5ccc(O)c4O[C@H]2/C(=N/N=C2\CC[C@@]4(O)[C@H]6Cc7ccc(O)c8c7[C@@]4(CCN6CC=C)[C@H]2O8)CC[C@@]3(O)[C@H]1C5 [Naloxonazine] | 33.8 | 9.68 | 3.45 |  | > 50 | > 50 | 3.49 | GI90 THP-1 (THP-1): 50 µM; Primary screen against intracellular amastigotes, hit selection [1]: complete specificity for the intracellular amastigote stage; Specificity [1]: 14.32; GI90 intracellular amastigote ([1]; curative concentration): 12.5 µM; Activity against promastigotes (in words) [2]: no activity; also recorded: completely inactive; Activity against axenic amastigotes (in words) [3]: no activity
7 | CCC(c1ccc(OCCN(CC)CC)cc1)C(CC)c1ccc(OCCN(CC)CC)cc1 (stereo not shown) [4,4′-Diethylaminoethoxyhexestrol] |  | 4.36 |  | 3.57 |  |  | 1.4 | GI50 (THP-1; [10]): 6.11 µM; GI50 ([2]; 72 h at 27°C, CellTiter-Glo): 5 µM; GI50 ([3]; 72 h at 37°C, CellTiter-Glo): 10.9 µM
8 | Clc1ccccc1C(c1ccccc1)(c1ccccc1)n1ccnc1 [Clotrimazole] | > 16.5 | 15.32 | 1.08 | 11.92 | 12.9 | 4.56 |  | 
9 | CC/C(=C(\c1ccccc1)c1ccc(OCCN(C)C)cc1)c1ccccc1 [Tamoxifen Citrate] | > 16.5 | 1.61 | 20.8 | 0.49 | 10.2 | > 50 |  | Primary screen against intracellular amastigotes, hit selection [1, 8]: active
10 | CC[C@@]1(O)C[C@H](O[C@H]2C[C@H](N(C)C)[C@H](O[C@H]3C[C@H](O)[C@H](O[C@H]4CCC(=O)[C@H](C)O4)[C@H](C)O3)[C@H](C)O2)c2c(cc3c(c2O)C(=O)c2c(O)cccc2C3=O)[C@H]1C(=O)OC [Aclacynomycine a1] |  | 5 |  | 1.57 |  |  | 5.81 | GI50 (THP-1; [10]): 29.1 µM; GI50 ([2]; 72 h at 27°C, CellTiter-Glo): 9.15 µM; GI50 ([3]; 72 h at 37°C, CellTiter-Glo): > 16.5 µM
11 | CCN(CCCCOC(=O)c1ccc(OC)c(OC)c1)C(C)Cc1ccc(OC)cc1 (stereo not shown) [Mebeverine] | > 50 | 5.88 | 8.5 | 0.81 | 6.91 | 2.36 |  | 
12 | CN1CCc2cccc3c2[C@H]1Cc1ccc(O)c(O)c1-3 [R(-)-Apomorphine] |  | 6.1 |  |  |  |  | 2.7 | GI50 (THP-1; [10]): > 16.5 µM; Specificity [1]: 14.12; GI50 ([2]; 72 h at 27°C, CellTiter-Glo): 38.1 µM; GI50 ([3]; 72 h at 37°C, CellTiter-Glo): 5.2 µM
13 | C[C@@H]1[C@H](O)[C@@H](C)/C=C/C=C/C=C/C=C/C=C/C=C/C=C/[C@H](O[C@@H]2O[C@H](C)[C@@H](O)[C@H](N)[C@@H]2O)C[C@@H]2O[C@](O)(C[C@@H](O)C[C@@H](O)[C@H](O)CC[C@@H](O)C[C@@H](O)CC(=O)O[C@H]1C)C[C@H](O)[C@H]2C(=O)O [Amphotericin B] | > 50 | 44.52 |  | 1.43 | 1.61 | 5.42 | 1.12 | Effect on growth of intracellular L. donovani ([1]; 2 µM, 72 h): significantly inhibited growth; Primary screen against intracellular amastigotes, hit selection [1, 8]: active
14 | COc1cc2nc(N3CCN(C(=O)c4ccco4)CC3)nc(N)c2cc1OC.Cl [Prazocin Hydrochloride] |  | 3.46 |  |  |  |  | 6.73 | GI50 (THP-1; [10]): 23.3 µM; Specificity [1]: 2.48; GI50 ([2]; 72 h at 27°C, CellTiter-Glo): 16.7 µM; GI50 ([3]; 72 h at 37°C, CellTiter-Glo): > 50 µM
15 | CN1C[C@H](CNC(=O)OCc2ccccc2)C[C@@H]2c3cccc4c3c(cn4C)C[C@H]21 [Metergoline] | 37.1 | 47.22 | 0.78 | 19.17 | 15.1 | > 50 |  | 
16 | CCN(CC)c1ccc(C(=C2C=CC(=[N+](CC)CC)C=C2)c2ccccc2)cc1 [Brilliant green] | 1.64 | 15.88 | 6 | 0.02 | 0.1 | 0.03 |  | 
17 | Cc1ccc2c(Cl)cc(Cl)c(O)c2n1 [chlorquinaldol] | 39.3 | 7.14 | 5.5 | 1.14 | 6.3 | 1.72 |  | 
18 | COC(=O)C1=C(C)NC(C)=C(C(=O)OCC(C)C)C1c1ccccc1[N+](=O)[O-] (stereo not shown) [Nisoldipine] | > 16.5 | 1.67 | 32.2 | 0.30 | 9.85 | 13.9 |  | 
19 | CC(C)(C)c1ccc(S(=O)(=O)/C=C/C#N)cc1 [BAY 11–7085] |  | 32.46 |  |  |  |  |  | GI50 (THP-1; [10]): > 50 µM; Specificity [1]: 0.06; GI50 ([2]; 72 h at 27°C, CellTiter-Glo): 1.54 µM; GI50 ([3]; 72 h at 37°C, CellTiter-Glo): 0.42 µM

— PMC3139667, “A Screen against Leishmania Intracellular Amastigotes: Comparison to a Promastigote Screen and Identification of a Host Cell-Specific Hit” (PLoS Neglected Tropical Diseases, 2011)
